# Data as given in US6958318B2, “Recombinant bacterial cells for delivery of PNP to tumor cells” (The UAB Research Foundation, priority 1993, dated 2005).
# Where “and” joins values, the source holds several entries; their conditions need not be identical. Identical values can stand only once. Entries after “also recorded” stand apart in the source; their conditions may differ. Like-named read-outs stand apart in the source and are kept apart here.
# Key:
# human PNP = target: T1, human PNP (Homo sapiens, UniProt P00491); assay: Cleavage of purine analog nucleosides by human PNP (HPLC); type: biochemical; details: for Percent of substrate cleaved by Human PNP, 1 mM: substrate 1 mM
# T1 sequence (P00491 1-289): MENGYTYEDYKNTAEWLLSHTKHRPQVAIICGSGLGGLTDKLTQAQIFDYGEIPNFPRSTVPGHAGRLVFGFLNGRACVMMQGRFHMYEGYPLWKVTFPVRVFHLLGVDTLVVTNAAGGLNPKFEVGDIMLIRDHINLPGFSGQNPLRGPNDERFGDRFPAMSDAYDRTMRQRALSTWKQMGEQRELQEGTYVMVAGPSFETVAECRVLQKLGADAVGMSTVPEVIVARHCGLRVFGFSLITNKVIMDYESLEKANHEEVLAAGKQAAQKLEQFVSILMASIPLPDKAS
# [1] = literature; cited from earlier work
# E. coli PNP = E. coli PNP (Escherichia coli, UniProt P0ABP8); type: biochemical
# Sequence of E. coli PNP (P0ABP8 2-239): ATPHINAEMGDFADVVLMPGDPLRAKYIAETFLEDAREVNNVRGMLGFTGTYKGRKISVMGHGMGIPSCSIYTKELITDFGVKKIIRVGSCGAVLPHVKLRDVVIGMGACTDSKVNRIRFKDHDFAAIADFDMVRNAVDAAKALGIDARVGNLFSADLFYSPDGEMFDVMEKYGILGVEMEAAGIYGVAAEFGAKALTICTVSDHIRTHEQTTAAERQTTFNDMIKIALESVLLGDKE
# D54-PNP tumors = assay: E. coli PNP-transduced D54 glioma tumors in nude mice; type: in vivo; details: previous studies
# Experimental: Female athymic nude mice (nu/nu) were implanted sc with 2×10^7 cells of either D54 parental tumor cells (D54-wt) or D54 tumor cells that had been transduced with the E. coli PNP (D54-PNP). After the tumors had grown to approximately 150 mg, they were treated ip with either vehicle or 67 mg/kg of MeP-dR (IP) once a day for 3 days (days 6, 7 and 8 after implantation). The tumor sizes were measured twice a week after treatment.
# A confirmation experiment was set up exactly as described above, except that animals were treated with two doses of MeP-dR (45 and 67 mg/kg) (FIGS. 10 and 11). The results of this experiment were similar (Table V). There were 8 of 10 complete regressions in mice bearing the D54-PNP tumors that were treated with 67 mg/kg of MeP-dR. In 4 mice the tumors subsequently returned and grew. There were still 4 of 10 tumor-free survivors 60 days after the treatment had stopped. […] There were 2 of 10 complete regressions and 3 partial responses. […] The delay in the time required to double twice due to treatment with MeP-dR was 5 to 6 days in the non-transduced tumors and greater than 24 days in transduced tumors. In this experiment, the growth rate of the D54-PNP tumors was considerably slower than it was in the first experiment. There was no change in the growth rate of the D54-wt tumors. The reason for the slow growth rate of the D54-PNP tumors in this experiment is not known. […] (In other words, if a tumor was too small to measure, it was not included in the average size). This means that the overall tumor regressions in the D54 PNP group are actually much more pronounced than they appear in FIGS. 8-11.
# PNP transduced tumors = type: in vivo
# [2] = test system: tumor cells transduced with the E. coli PNP; assay: Killing of PNP-transduced tumor cells in vitro by other prodrugs; type: cell-based
# Description: In addition to MeP-dR, two other prodrugs suitable for E. coli PNP activation in tumor cells can be applied to the methodology of the present invention. These prodrugs are F-araA and 2-F-2′deoxyadenosine. […] As desired, this dose had no effect on control untransduced, tumor cells.
# D54 glioma tumors = assay: D54 tumors of mixed wild-type and transduced cells (80 to 20); details: in vivo
# [3] = substrate 100 μM, 0.1 unit/ml enzyme, 25° C., 1 hour, stopped by boiling
# [4] = 25° C., 1 hour, stopped by boiling
# [5] = 100 μM in the presence of 1 mM deoxycytidine
compound,measurement,setting,value
"Nc1cc(Cl)c2ncn([C@@H]3O[C@H](CO)[C@@H](O)[C@H]3O)c2n1 [1-deaza-2-amino-6-Cl-purine-riboside, 2-amino-6-chloro-1-deazapurine riboside]",Substrate quality for mammalian (human) PNP,human PNP; in words,poor substrates
same,"Percent of substrate cleaved by Human PNP, 100 μM",human PNP; [3],0(88) Percent and 0(86) Percent
same,"Percent of substrate cleaved by Human PNP, 1 mM",human PNP; [4],0(52) Percent and 0(47) Percent
same,Toxicity of prodrug relative to its purine analog,[1],much less toxic than their respective purine analogs
same,"Percent of substrate cleaved by E. coli PNP, 100 μM",E. coli PNP,62(87)16(23) Percent and 41(86)15(21) Percent
same,"Percent of substrate cleaved by E. coli PNP, 1 mM",E. coli PNP,62(87)16(23) Percent and 41(86)15(21) Percent
same,Substrate quality for bacterial (E. coli) PNP,E. coli PNP,good substrates
Nc1nc(F)nc2c1ncn2[C@@H]1O[C@H](CO)[C@@H](O)[C@H]1F [2-F-2′-F-2′-deoxyadenosine],"Percent of substrate cleaved by E. coli PNP, 100 μM",E. coli PNP,0(86) Percent
same,"Percent of substrate cleaved by E. coli PNP, 1 mM",E. coli PNP,0(21) Percent
same,Substrate quality for bacterial (E. coli) PNP,E. coli PNP,poor substrates
"C[C@H]1O[C@@H](n2cnc3c(N)nc(F)nc32)[C@H](O)[C@@H]1O [2-F-5′-deoxyadenosine, 2-fluoro-5′-deoxyadenosine]",Substrate quality for mammalian (human) PNP,human PNP; in words,poor substrates
same,Substrate quality for bacterial (E. coli) PNP,E. coli PNP,good substrates
"Nc1ncnc2c1ncn2[C@H]1CC[C@@H](CO)O1 [2′,3′-dideoxy adenosine, 2′,3′-dideoxyadenosine]",Substrate quality for mammalian (human) PNP,human PNP; in words,poor substrates
same,Substrate quality for bacterial (E. coli) PNP,E. coli PNP,poor substrates
"Nc1ncnc2c1ncn2[C@@H]1O[C@H](CO)C[C@H]1O [3′-deoxy adenosine, 3′-deoxyadenosine]",Substrate quality for mammalian (human) PNP,human PNP; in words,poor substrates
same,Substrate quality for bacterial (E. coli) PNP,E. coli PNP,poor substrates
NC[C@H]1O[C@@H](n2cnc3c(N)ncnc32)[C@H](O)[C@@H]1O [5′-amino-5′-deoxyadenosine],Substrate quality for mammalian (human) PNP,human PNP; in words,not cleaved
same,Substrate quality for mammalian (human) PNP,"human PNP; in words, listed as 50-amino-50-deoxyadenosine",poor substrates
same,Substrate quality for bacterial (E. coli) PNP,E. coli PNP,moderate substrates; also recorded: poorly cleaved
NC(=O)[C@H]1O[C@@H](n2cnc3c(N)ncnc32)[C@H](O)[C@@H]1O [5′-carboxamide of adenosine],"Percent of substrate cleaved by Human PNP, 100 μM",human PNP,0(81) Percent and 0(82) Percent
same,Substrate quality for mammalian (human) PNP,human PNP,poor substrates
same,Substrate quality for bacterial (E. coli) PNP,E. coli PNP,poor substrates
Nc1cc2ncn(C3O[C@H](CO)[C@@H](O)[C@H]3O)c2c(=O)[nH]1 (stereo partly shown) [7-ribosyl-3-deazaguanine],Substrate quality for mammalian (human) PNP,human PNP; in words,poor substrates
same,Toxicity of prodrug relative to its purine analog,[1],much less toxic than their respective purine analogs
same,Substrate quality for bacterial (E. coli) PNP,E. coli PNP,good substrates
OC[C@H]1OC(n2cnc3ncnc(S)c32)[C@H](O)[C@@H]1O (stereo partly shown) [7-ribosyl-6-mercaptopurine],Substrate quality for mammalian (human) PNP,human PNP; in words,poor substrates
"O=c1[nH]cnc2ncn(C3O[C@H](CO)[C@@H](O)[C@H]3O)c12 (stereo partly shown) [7-ribosyl-hypoxanthine, 7-ribosylhypoxanthine]",Substrate quality for mammalian (human) PNP,human PNP; in words,moderate to good substrates
same,Substrate quality for bacterial (E. coli) PNP,E. coli PNP,moderate to good substrates
"Nc1nc(F)nc2c1ncn2[C@H]1C[C@H](O)[C@@H](CO)O1 [F-dAdo, 2-fluoro-2′-deoxyadenosine]",Activity against D54 glioma tumors expressing the E. coli PNP gene,D54-PNP tumors,good activity
same,Tolerability in mice,PNP transduced tumors; doses similar to MeP-dR,without toxicity
same,Anti-tumor effect on PNP transduced tumors in mice,"PNP transduced tumors; mouse, in vivo",strong anti-tumor effects
same,Substrate quality for mammalian (human) PNP,human PNP; in words,poor substrates
same,Killing of PNP-transduced tumor cells in vitro,[2],high level killing
same,Effect on control untransduced tumor cells,[2]; [5],no effect
same,Killing when as few as 1% of tumor cells express the gene,[2]; [5],kills cells transduced with the E. coli PNP
same,Substrate quality for bacterial (E. coli) PNP,E. coli PNP,good substrates
same,Activity against tumors of wild-type and transduced cells at 80 to 20,D54 glioma tumors,less active
CC1(C)OC2C(C(N)=O)OC(n3cnc4c(N)ncnc43)C2O1 (stereo not shown) [isopropylidine of the 5′-carboxamide of adenosine],"Percent of substrate cleaved by Human PNP, 100 μM",human PNP,0(81) Percent and 0(82) Percent
same,Substrate quality for mammalian (human) PNP,human PNP,poor substrates
same,Substrate quality for bacterial (E. coli) PNP,E. coli PNP,poor substrates
Nc1ncnc2c1ncn2C1OC(CO)C(O)C1O (stereo not shown) [xylosyl adenine],"Percent of substrate cleaved by Human PNP, 100 μM",human PNP; [3],0(81) Percent and 0(82) Percent
Nc1ncnc2c1ncn2[C@H]1O[C@H](CO)[C@@H](O)[C@H]1O [α-adenosine],"Percent of substrate cleaved by Human PNP, 100 μM",human PNP; # line: assay terminated by filtering and not by boiling,0(87**) Percent
same,Substrate quality for mammalian (human) PNP,human PNP; in words,poor substrates; also recorded: not cleaved
same,"Percent of substrate cleaved by Human PNP, 100 μM",human PNP; [3],0(88) Percent and 0(86) Percent
same,"Percent of substrate cleaved by Human PNP, 1 mM",human PNP; [4],0(50) Percent and 0(47) Percent
same,Substrate quality for bacterial (E. coli) PNP,E. coli PNP,poorly cleaved
xylosyl methylpurine [xylosylmethylpurine],Substrate quality for mammalian (human) PNP,human PNP; in words,poor substrates
same,"Percent of substrate cleaved by Human PNP, 100 μM",human PNP; [3],0(88) Percent and 0(86) Percent
same,"Percent of substrate cleaved by Human PNP, 1 mM",human PNP; [4],0(50) Percent and 0(47) Percent
same,"Percent of substrate cleaved by E. coli PNP, 100 μM",E. coli PNP,0(86) Percent
same,"Percent of substrate cleaved by E. coli PNP, 1 mM",E. coli PNP,0(21) Percent
same,Substrate quality for bacterial (E. coli) PNP,E. coli PNP,poor substrates
